Measured values taken from patent publication US20010004643A1, “Pharmaceutical composition with sotalol combination and their use in treatment of cardiac ailments” (priority 1999, published 2001).
Marks after values point to notes of the source that are not given here.

Legend:
[1] = system: beta adrenergic blockade, isolated right auricle preparation of rabbit; assay: Beta blocking potency (pA2 against isoprenaline) in isolated rabbit right auricle; details: isoprenaline chronotropic response, Schild's plot
Description: Estimation of the beta blockade of various ratios of d- and l- isomers of sotalol was carried out in the isolated right auricle preparation of rabbit. The spontaneously beating right atrium was dissected and mounted in a 20 ml tissue bath. The resting tension on the atria was set at 1 g. The contractions were recorded using a force displacement transducer. The spontaneous contractions of the right atria were recorded isometrically and the heart rate was obtained as a derived parameter using a ratemeter that gave the output in beats per minute. Six different ratios of d and l isomers were investigated (1:1, 2:1, 3:1, 4:1, 5:1 and 1:0). Dose-response-curves (DRC) for isoprenaline in the isolated atria, using the chronotropic response were determined by cumulative addition of isoprenaline. The pA2 values of each of the ratios were estimated using the classical Schild's plot (Schild, 1957) and the values are shown in Table 1.

[2] = system: ouabain induced arrhythmia (VT, VF, mortality); assay: Ouabain induced arrhythmia model in guinea pig; format: in vivo; details: for actual incidence of mortality (value in parenthesis): 60 min; for actual incidence of mortality (value in parenthesis) / actual incidence of VF (value in parenthesis) / actual incidence of VT (value in parenthesis): number of animals of the group; for % INCIDENCE OF MORTALITY: mortality at 60 min; for deaths due to conduction block (60 min), actual incidence (value in parenthesis) / deaths due to tachyarrhythmia (60 min), actual incidence (value in parenthesis): number of animals; for % INCIDENCE OF VF / % INCIDENCE OF VT: ouabain 240 μg/kg in three doses, observed one hour; for DEATHS DUE TO CONDUCTION BLOCK (60 MIN) Percentage / DEATHS DUE TO TACHYARRHYTHMIA (60 MIN) Percentage: percentage deaths out of total mortality
Excerpt: Method: Guinea pigs (Dunken Hartley) of either sex weighing between 400 and 500 g were used for the study. The animals were anesthetized with urethane (1.25 g/kg. i.p.). The left common carotid artery and left jugular vein were cannulated for arterial blood pressure monitoring and intravenous access respectively. Lead II electrocardiogram, arterial blood pressure, mean arterial blood pressure (MABP), heart rate were monitored throughout the experiment.
After initial surgical preparations and allowing 30 minutes for the animal to stabilise the first dose of ouabain (90 μg/kg) was administered over a period of one minute. After the interval of thirty minutes, second dose of ouabain (60 μg/kg) was administered over a period of one minute. One minute after this dose, 0.5 ml saline (in control experiments) was administered over a period of one minute. After an interval of 10 minutes a third dose of ouabain (90 μg/kg) was administered over a period of one minute. […] The test compounds were administered to animals in test group in place of saline to evaluate their antiarrhythmic potential. From the ECG recordings, the incidence of VT, VF and mortality were recorded. The doses of ratios of sotalol isomers studied were 0.1, 0.5 and 2.5 mg/kg.
Interpretation of ECG recordings: Minor disturbance in rhythm was not considered while evaluating ventricular tachyarrhythmias. A run of more than 3 ventricular ectopic beats having wide QRS complexes associated with partial haemodynamic collapse was considered as Ventricular Tachycardia (VT). Total morphological irregularity of repetitive complexes for at least six cycles associated with complete haemodynamic collapse was considered as Ventricular Fibrillation (VF). Successful arrhythmia protection was defined as no occurrence of VT and VF from the injection of saline/test drug till the end of the experiment.
Statistics: Chi square test with continuity correction at 95% confidence limit was applied to find out the statistical significance between control and test groups for incidence of VT, VF and mortality. Whenever, any of the value in a cell was less than 5, Fischer's exact probability test was used.
Results: Different ratios of sotalol in the dose range from 0.02 mg/kg to 12.5 mg/kg were studied in individual groups of animals. In all 18 groups were studied and at least 6 animals were used in each group. In control animals ouabain 240 μg/kg in three divided doses induced reproducible ventricular tachyarrhythmias in guinea pigs. It was observed that ventricular arrhythmias appeared after the administration of the third dose. Guinea pigs which responded early i.e. before or within 1 min. of administration of the second dose, were considered early responders and were not included in the study. […] In the study, control experiments were carried out randomly interspersed in test groups. Among the 42 control animals the incidence of VT was 81%, incidence of VF was 71.4% and the incidence of mortality at 60 minutes was 61.9%.

[3] = guinea pig, in vivo, listed as 4:1 ratio (d:l)

## CC(C)NCC(O)c1ccc(NS(C)(=O)=O)cc1 (stereo not drawn) [4:1 RATIO, N-[4-[1-hydroxy-2-[(1-methylethyl)amino]ethyl]phenyl] methane sulfonamide]
[1]; listed as 4:1
  pA2 Mean: 6.01
[2]; 0.5 mg/kg
  actual incidence of mortality (value in parenthesis): (2)
  % INCIDENCE OF MORTALITY: 33.3%
  deaths due to conduction block (60 min), actual incidence (value in parenthesis): (1)
  deaths due to tachyarrhythmia (60 min), actual incidence (value in parenthesis): (1)
  actual incidence of VF (value in parenthesis): (6)
  actual incidence of VT (value in parenthesis): (6)
  % INCIDENCE OF VF: 100.0%
  % INCIDENCE OF VT: 100.0%
  DEATHS DUE TO CONDUCTION BLOCK (60 MIN) Percentage: 50.0%
  DEATHS DUE TO TACHYARRHYTHMIA (60 MIN) Percentage: 50.0%
[2]; 2.5 mg/kg
  protection against VF: some protection
  protection against ouabain induced VT: some protection
  actual incidence of mortality (value in parenthesis): (2)
  % INCIDENCE OF MORTALITY: 33.3%
  deaths due to conduction block (60 min), actual incidence (value in parenthesis): (2)
  deaths due to tachyarrhythmia (60 min), actual incidence (value in parenthesis): (0)
  actual incidence of VF (value in parenthesis): (2)
  actual incidence of VT (value in parenthesis): (2)*
  % INCIDENCE OF VF: 33.3%
  % INCIDENCE OF VT: 33.3%
  DEATHS DUE TO CONDUCTION BLOCK (60 MIN) Percentage: 100.0%
  DEATHS DUE TO TACHYARRHYTHMIA (60 MIN) Percentage: 00.0%
[2]; 2.5 mg/kg, listed as 4:1
  protection against arrhythmias (VT and VF): could not protect
  % INCIDENCE OF MORTALITY: 33.3%
  % INCIDENCE OF VF: 33.3%
  % INCIDENCE OF VT: 33.3%
[2]; 12.5 mg/Kg
  protection against arrhythmias (VT and VF): could protect
[2]; 12.5 mg/kg
  actual incidence of mortality (value in parenthesis): (4)
  % INCIDENCE OF MORTALITY: 66.6%
  deaths due to conduction block (60 min), actual incidence (value in parenthesis): (3)
  deaths due to tachyarrhythmia (60 min), actual incidence (value in parenthesis): (1)
  actual incidence of VF (value in parenthesis): (0)*
  actual incidence of VT (value in parenthesis): (0)*
  % INCIDENCE OF VF: 00.0%
  % INCIDENCE OF VT: 00.0%
  DEATHS DUE TO CONDUCTION BLOCK (60 MIN) Percentage: 75.0%
  DEATHS DUE TO TACHYARRHYTHMIA (60 MIN) Percentage: 25.0%
[2]; 12.5 mg/kg, listed as 4:1 ratio
  % INCIDENCE OF MORTALITY: 66.6%
[2]; effective dose of 12.5 mg/kg
  mortality: significantly high
[2]; [3]
  dose at which complete protection against VT was observed: 12.5 mg/kg
  dose that completely protected against VF: 12.5 mg/kg

## CC(C)NCC(O)c1ccc(NS(C)(=O)=O)cc1 (stereo not drawn) [d-SOTALOL, N-[4-[1-hydroxy-2-[(1-methylethyl)amino]ethyl]phenyl] methane sulfonamide]
[1]; listed as 1:0
  pA2 Mean: 5.44
[1]; listed as pure d-isomer of sotalol
  pA2 Mean: 5.44
[2]; 0.5 mg/kg
  actual incidence of mortality (value in parenthesis): (5)
  % INCIDENCE OF MORTALITY: 50.0%
  deaths due to conduction block (60 min), actual incidence (value in parenthesis): (1)
  deaths due to tachyarrhythmia (60 min), actual incidence (value in parenthesis): (4)
  actual incidence of VF (value in parenthesis): (7)
  actual incidence of VT (value in parenthesis): (7)
  % INCIDENCE OF VF: 70.0%
  % INCIDENCE OF VT: 70.0%
  DEATHS DUE TO CONDUCTION BLOCK (60 MIN) Percentage: 20.0%
  DEATHS DUE TO TACHYARRHYTHMIA (60 MIN) Percentage: 80.0%
[2]; 2.5 mg/kg
  actual incidence of mortality (value in parenthesis): (6)
  % INCIDENCE OF MORTALITY: 66.6%
  deaths due to conduction block (60 min), actual incidence (value in parenthesis): (3)
  deaths due to tachyarrhythmia (60 min), actual incidence (value in parenthesis): (3)
  actual incidence of VF (value in parenthesis): (6)
  actual incidence of VT (value in parenthesis): (7)
  % INCIDENCE OF VF: 66.6%
  % INCIDENCE OF VT: 77.7%
  DEATHS DUE TO CONDUCTION BLOCK (60 MIN) Percentage: 50.0%
  DEATHS DUE TO TACHYARRHYTHMIA (60 MIN) Percentage: 50.0%
[2]; 12.5 mg/kg
  actual incidence of mortality (value in parenthesis): (6)
  % INCIDENCE OF MORTALITY: 100.0%
  deaths due to conduction block (60 min), actual incidence (value in parenthesis): (3)
  deaths due to tachyarrhythmia (60 min), actual incidence (value in parenthesis): (3)
  actual incidence of VF (value in parenthesis): (3)
  actual incidence of VT (value in parenthesis): (3)
  % INCIDENCE OF VF: 50.0%
  % INCIDENCE OF VT: 50.0%
  DEATHS DUE TO CONDUCTION BLOCK (60 MIN) Percentage: 50.0%
  DEATHS DUE TO TACHYARRHYTHMIA (60 MIN) Percentage: 50.0%
[2]; 12.5 mg/kg, listed as d-Sotalol
  % INCIDENCE OF MORTALITY: 100%
[2]; doses 2.5 mg/kg and 12.5 mg/kg
  cause of deaths: equally due to conduction abnormality as well as tachyarrhythmias
[2]; no dose stated
  protection against ouabain induced VF: ineffective
  protection against ouabain induced VT: ineffective
